In US8574604B2, “Methods and compositions for the delivery of biologically active agents” (Interface Biologics, Inc., priority 2005, dated 2013):

Assay: UV/Vis measurement of Methyl Violet complexation by CyD-OF
Format: physicochemical
Conditions: Methyl Violet 0.01 mg/mL in DMSO; decrease in absorbance indicates complexation
Method: CyD-OF (3a) ([…]) was dissolved in DMSO (75 μL). A solution of Methyl Violet (MV, 2.8 mg) in DMSO (28 mL) was prepared at 0.1 mg/mL. One mL of Methyl Violet solution was further diluted with DMSO (10 mL) to form a 0.01 mg/mL solution. The CyD-OF solution (75 μL) was added dropwise to a solution of MV (500 μL) in a 4 mL glass vial over the course of ten minutes. This solution was sealed and left in the dark for 12 hours. A UV/Vis measurement of the Methyl Violet solution at 0.01 mg/mL was taken (A (591 nm)=0.96) as control. The UV/Vis spectrum of the CyD-OF was measured at A (591 nm)=0.63, indicating the intensity of the guest molecules evidently to change upon the addition of molecular receptors. Upon complexation the absorbance decreased, confirming the formation of a complex. A control solution was also prepared.

UV/Vis absorbance A (591 nm): 0.96
Substance: Methyl Violet
